Assays:
[1] = Fatty acid composition in liver and plasma of obese Zucker fa/fa rats (Example 19); assay type: in vivo; details: 300 mg/day/kg by gavage once daily for 10 days
Procedure: Male obese Zucker fa/fa rats, weighing 100 g at the start of the experiment, were housed in pairs in metal wire cages in a room maintained at 12 h light-dark cycles and a constant temperature of 20±° C. The animals were acclimatised for at least one week under these conditions before the start of the experiment.
TTA and palmitic acid (control), was suspended in 0.5% (w/v) carboxymethyl cellulose (CMC) and administered at a dose of 300 mg/day/kg body weight, by gastric intubation (gavage) once daily for 10 days. The rats were fasted for 2 hours before termination of the experiment. Blood and organs were collected. Total lipids were extracted from liver and plasma. The lipids were evaporated, saponified and esterified prior to separation using a Carlo Erba 2900 gas-chromatograph.

[2] = Plasma free fatty acids and ketone bodies in old obese Zucker rats; assay type: in vivo, obese Zucker (fa/fa) rats; details: 21 week-old male rats, standard diet enriched with 0.15% TTA for 15 days; means ± SD
Procedure: Glucose (GLU, Boehringer Mannheim, Germany), free fatty acids (NEFA, C ACS-ACOD kit; Wako Chemicals, Dalton, USA) and b-hydroxybutyrate (310-A kit; Sigma Diagnostics Inc., St. Louis, USA) concentrations were measured using enzymatic methods. Insulin concentrations were determined with radioimmunoassay by (CIS bio International, Gif sur Yvette, France) using rat insulin as standard in the Zucker rats. In the Wistar Charles River rats, plasma glucose concentrations were measured with the aid of Beckman Glucose Analyzer (Fullerton, Calif., USA). Plasma insulin levels were measured using a RIA kit from Linco Research Inc. (St. Charles, Mo., USA). Phospholipids were measured by the enzymatic method of bioMérieux, Marcy-l{grave over ( )}Etoile, France, Triacylglycerol by the Technicon Method no. SA4-0324L90, USA and Cholesterol by the Technicon Method no. SA4-0305L90, USA.
Data are means±SD of six animals in both the control- and the experimental group. Free fatty acids (FFA) and ketone bodies (4-hydroxy butyrate)were measured in plasma and 3-hydroxy-3-methylglutaryl (HMG)—CoA synthase activities were measured in mitochondrial fractions prepared from the liver from 21 week-old male obese Zucker (fa/fa) rats given either a standard diet (control) or a standard diet enriched with 0.15% TTA for 15 days.

[3] = Plasma lipids after feeding moderate doses to animals; assay type: in vivo, rats, mice, rabbits and dogs; details: within days of treatment
[4] = Euglycemic hyperinsulinemic clamp, high fat diet induced insulin resistance (Example 12); assay type: in vivo, Wistar Charles River rats; details: HF diet supplemented with TTA, 21 days; 45-90 minutes of clamp
Procedure: After 21 days on their respective diets (see above), the rats were anaesthetised by injection of xylazine hydrochloride (Rometar SPOFA, Prague, Czech Republic; 10 mg/ml) and ketamine hydrochloride (Narkamon SPOFA, Prague, Czech republic; 75 mg/ml), and fitted with chronic carotid artery and jugular vein cannulas as described by Koopmans et al. (Koopmans, S. J., et al., Biochim Biophys Acta, 1115, […] 1992.). The cannulated rats were allowed to recover for two days after surgery before the clamping studies which were carried out according to Kraegen et al. (Kraegen, E. W., et al., Am J Physiol, 248, E353-E362 1983.). Thus, on the third day after surgery, unrestrained conscious rats were given a continuous infusion of porcine insulin (Actrapid, Novo Nordisk, Denmark) at a dose of 6.4mU per kg per min to achieve plasma insulin levels in the upper physiological range. The arterial blood glucose concentration was clamped at the basal fasting level, by variable infusion of a 30% w/v glucose solution (Leciva, Prague, Czech Republic). […]
Rats weighing 330±20 g were divided into 3 groups (n=9) and fed with three different diets: standard rat chow, high fat diet (HF) and HF supplemented with TTA. […] The glucose infusion rate (GIR) was determined from the period of the clamp where glycemia got stabilised, i.e. between 45-90 minutes after clamp commencement. […]

[5] = Fatty acid content after 12 weeks administration to rats; assay type: in vivo; details: administration to rats for 12 weeks
[6] = test system: mitochondrial β-oxidation; test: Liver fatty acid oxidation in treated obese Zucker rats (Example 16); assay type: in vivo, obese Zucker (fa/fa) rats; details: palmitoyl-CoA and palmitoyl-L-carnitine as substrates; chow with 0.15% TTA, 21 days
Procedure: Freshly isolated livers from individual old Zucker rats, were homogenised in ice-cold sucrose buffer (0.25 M sucrose, 10 mM HEPES (pH 7.4) and 2 mM EDTA). Post-nuclear and mitochondrial fractions were prepared using preparative differential centrifugation according to DeDuve et al. (De Duve, C., et al., Biochem. J., 60, 604-617 1955.) Modifications, purity and yield were as described earlier (Garras, A., et al., Biochim. Biophys. Acta, 1255, 154-160 1995.). Acid soluble products were measured in post-nuclear and mitochondrial enriched fractions, using [1-^14C]-palmitoyl-CoA and [1-^14C]-palmitoyl-L-carnitine (Radio-chemical Centre, Amersham, England) as substrates as described earlier (Willumsen, N., et al., J. Lipid Res., 34, 13-22 1993. Carnitine palmitoyltransferase-I and -II activities were measured in the post-nuclear and mitochondrial fractions essentially as described by Bremer (Bremer, J., Biochim. Biophys. Acta, 665, 628-631 1981.) and 3-hydroxy-3-methylglutharyl-CoA synthase was measured according to Clinkenbeard et al. (Clinkenbeard, K. D., et al., J. Biol. Chem, 250, 3108-3116 1975.) in the mitochondrial fractions.
Obese Zucker (fa/fa) rats were given a standard chow either with (n=6) or without (n=5) 0.15% TTA. Following 21 days of treatment, rats were killed by cervical dislocation and the livers were removed. […] Values are expressed as the mean±S.D.

Substance: Tetradecylthioacetic acid [TTA]
- Fatty acid composition in liver: Monounsaturated tetradecylthioacetic acid [1]: 1.1 ± 0.2 % of total
- Fatty acid composition in liver: Oleic acid [1]: 14.9 ± 1.0 % of total
- Fatty acid composition in plasma: Monounsaturated tetradecylthioacetic acid [1]: 0.2 ± 0.1 % of total
- Fatty acid composition in plasma: Oleic acid [1]: 22.1 ± 0.5 % of total
- 4-OH butyrate (plasma ketone bodies) [2]: 3.44 ± 1.37 mmol/L
- FFA (plasma free fatty acids) [2]: 0.53 ± 0.21 mEq/L
- Plasma cholesterol and triacylglycerol levels [3]: decreased
- Glucose infusion rate (GIR) in clamp (FIG. 4) [4]: fully normal
- Hepatic and plasma content of monounsaturated fatty acids (mainly oleic acid) [5]: nearly doubled
- Polyunsaturated fatty acids (mainly linoleic acid and DHA) [5]: decreased
- Increase of liver fatty acid oxidation (FIG. 8A) [6]: more than 7 fold

— US6441036B1 (priority 1998, dated 2002)
